Source: patent US9539321B2, “HMGB1-derived peptides enhance immune response to antigens” (The Regents of the University of California, priority 2010, dated 2017)
“Also recorded” adds a separate entry of the source. Where two headings read alike, the source gives them in different places. Where a SMILES comes first, the peptide text is derived from it. The star is where a group is joined. Biotin = O=C1N[C@H]2[C@H](CS[C@H]2CCCCC(=O)*)N1

What was measured:
[1] = system: J774 macrophages; type: cell-based, mouse
[2] = system: J774 macrophages; test: Uptake of Cp488-labeled Hp91 by macrophages, flow cytometry; type: cell-based, mouse; conditions: Dynasore 80 μM, Cp488-labeled Hp91 200 μg ml^−1
[3] = system: p-IRF3 in RAW 264.7 macrophages; test: Immunoblotting for phospho-IRF3; type: cell-based, mouse; conditions: Dynasore 80 μM pre-treatment
[4] = Adverse effects of tested doses in mice; type: in vivo
[5] = system: Immature human DCs; test: Peptide binding/uptake by flow cytometry; conditions: for uptake by DCs: biotinylated peptide 200 μg ml^−1, 30 minutes, 37° C.
[6] = system: Immature human DCs; test: Stimulation of DCs, IL-6 by ELISA; type: cell-based; conditions: for effect of inhibitor pre-treatment on Hp91-induced IL-6 secretion: SB203580 5 or 20 μM, PD98059 20 μM, TPCK 20 μM, 48 h
[7] = system: antigen-specific IFN-γ secreting T cells; test: IFN-γ ELISPOT of splenocytes from immunized mice; type: in vivo, C57BL/6 mice; conditions: for number of antigen-specific IFNγ-secreting T cells compared to PBS: equimolar peptide with SIINFEKL peptide
Protocol: Female C57BL/6 mice 8-12 weeks of age were used for most experiments. All mice were purchased from Charles River Laboratories (Boston, Mass., USA) and housed at the Moores UCSD Cancer Center animal facility. All animal studies were approved by the Institutional Animal Care and Use Committee of UCSD and were perfolined in accordance with the institutional guidelines. For most experiments, mice were immunized s.c. with 50 μg of SIINFEKL (OVA-I) peptide (SEQ ID NO: 45) and 50 μg of ISQAVHAAHAEINEAGR (OVA-II) peptide (SEQ ID NO: 46). The OVA peptide was co-administered with either Hp91 (30 to 500 μg) or PBS (negative control). For some experiments, a protein vaccine group was included, wherein 500 μg of Hp91 was co-administered with 100 μg of LPS-free OVA protein. As a positive control, mice were immunized s.c. with OVA peptide(s) or protein in Incomplete Freund's Adjuvant “IFA” (Sigma-Aldrich, St. Louis, Mo., USA). If not otherwise indicated, mice were immunized and boosted two weeks later and spleens and blood were collected 10-14 days after the final immunization.
Single cell suspensions of splenocytes were prepared by mechanical disruption and separation through a 70 μm nylon cell strainer (BD Biosciences, Franklin Lakes, N.J., USA). Red blood cells were lysed using ammonium chloride buffer (Roche Diagnostics, Indianapolis, Ind., USA) and the splenocytes were subsequently resuspended in complete medium (RPMI 1640 with 10% FBS, L-glutamine, penicillin, streptomycin, and HEPES). in some experiments, CD4+ and CD8+ cells were depleted from bulk splenocyte populations using anti-CD4 or anti-CD8α conjugated microbeads (Miltenyi-Biotec, Auburn, Calif., USA) according to the manufacturer's instructions.
Freshly isolated splenocytes were plated in duplicate to wells of a nitrocellulose bottom enzyme-linked immunospot (ELISPOT) plate (Millipore, Millerica, Mass., USA) that had been previously coated overnight with 5 μg ml^−1 monoclonal anti-mouse IFN-γ antibody (Mabtech, Stockholm, Sweden). Splenocytes were cultured overnight at 37° C. with 2.5 μg ml^−1 SIINFEKL (OVA-I) peptide, 2.5 μg ml^−1 ISQAVHAAHAEINEAGR (OVA-II) peptide, or left unstimulated (medium only). After 18 h, culture supernatants were collected for cytokine analysis and ELISPOT plates were developed using 1 μg ml^−1 biotinylated anti-mouse IFN-γ antibody (Mabtech), Streptavidin-HRP (Mabtech), and TMB Substrate (Mabtech). The plate was scanned and the spots were counted using an automated ELISpot Reader System (CTL ImmunoSpot, Shaker Heights, Ohio, USA).
Mice were immunized s.c. with 50 μg of SIINFEKL peptide. The SIINFEKL peptide was co-administered with either PBS, Hp91 (250 μg), or scrambled Hp91 (250 μg). Peptides were dissolved in PBS for all immunizations, Mice were boosted two weeks later and spleens and blood were collected one week after the final immunization. Single cell suspensions of splenocytes were prepared by mechanical disruption and separation through a […] nylon cell strainer (BD Biosciences). Red blood cells were lysed using ammonium chloride buffer (Roche Diagnostics, Indianapolis, Ind.) and the splenocytes were subsequently resuspended in RPMI 1640 medium (Invitrogen) supplemented with 10 mmol HEPES (GIBCO-BRL), penicillin (100 U/mL)—streptomycin (100 μg/mL)—glutamine (2 mM) (GIBCO-BRI.), arid 5% (vol/vol) fetal calf serum (Omega).
Freshly isolated splenocytes were plated in duplicate to wells of a nifrocellulose bottom enzymelinked immunospot (ELISPOT) plate (Millipore, NAillerica, Mass., USA) that had been previously coated overnight with 5 μg ml^−1 monoclonal anti-mouse IFN-γ antibody (Mabtech, Stockholm, Sweden). Splenocytes were cultured overnight at 37° C., with 2.5 μg ml^−1 SIINFEKL peptide, 5 μg ml^−1 concanavalin A positive control (Sigma), or left unstimulated (medium only). […]

[8] = Circular dichroism; type: physicochemical; conditions: 75%/25% TFE/H2O, 200 μg ml^−1
Protocol: CD spectra of peptides, dissolved in 75%/25% Trifluoroethanol (TFE, Sigma)/H2O (vol/vol), were collected on an AVIV model 202 Circular Dichroism Spectrometer, under nitrogen, using a 1 mm pathlength quartz cuvette. These spectra were corrected by subtraction of a “solvent-only” spectrum and smoothed. The spectra are shown in mean residue ellipticity (θmrw). Peptides were analyzed at 200 μg ml^−1.

[9] = system: splenocytes; test: IL-2 / IL-4 secretion of splenocytes from immunized mice by ELISA; type: in vivo, C57BL/6 mice
Protocol: Splenocytes were cultured overnight with 2.5 μg ml^−1 OVA-I peptide, 2.5 μg ml^−1 OVA-II peptide, 5 μg ml^−1 concanavalin A positive control (Sigma), or left unstimulated (media only). After 18 h, cell culture supernatants were collected and analyzed for the presence of IL-2 and IL-4 by ELISA (eBioscience).
To measure cytokine release from immunized mice, splenocytes were cultured overnight with 2.5 μg ml^−1 SINFEKI: peptide, 5 μg ml^−1 concanavalin A positive control (Sigma), or left unstimulated (medium only). After 18 h, cell culture supernatants were collected and analyzed for the presence of IL-2 by ELISA. (eBioscience).
To measure cytokine release from immunized mice, splenocytes were cultured overnight with 2.5 μg ml^−1 SIINFEKL peptide, 5 μg ml^−1 concanavalin A positive control (Sigma), or left unstimulated (media only). After 18 h, cell culture supernatants were collected and analyzed for the presence of IL-2 by ELISA (eBioscience).

[10] = system: B16 melanoma cells; test: Prophylactic B16 tumor challenge
[11] = system: Immature human DCs; conditions: cited from earlier work
[12] = system: Immature human DCs; test: Confocal microscopy of peptide binding/uptake; type: cell-based; conditions: even after 30 minutes at 37° C.
Protocol: Immature human DCs (10^5) were pre-cooled on ice and subsequently incubated for 30 minutes on ice in culture medium with biotinylated Hp91 or Hp121 to allow peptide binding. Cells were washed and then incubated for the indicated time at 37° C. Cells were cytospun (Shandon Cytospin 2 centrintge) onto glass slides, fixed, pernieabiiized with acetone, and stained with Streptavidin-Alexa 488 (Invitrogen) to visualize biotinylated peptides and Hoechst 33258 DNA stain (Invitrogen). Cells were imaged on a Zeiss LSM confocal microscope.

[13] = system: mouse BM-DCs; test: Stimulation of mouse BM-DCs, IL-6 by ELISA; type: cell-based
[14] = biotinylated, 90 μM, 30 minutes 37° C.

O=C(N/N=C/c1ccc(O)c(O)c1)c1cc2ccccc2cc1O [Dynasore]
effect of inhibitor pre-treatment on Hp91-induced IL-6 secretion [1]: significantly reduced | effect on uptake of Hp91 [2]: significantly inhibited uptake | effect on Hp91-induced phosphorylation of IRF3 [3]: reduced the phosphorylation of IRF3

CC(C)C[C@H](NC(=O)[C@H](Cc1ccccc1)NC(=O)[C@H](Cc1ccccc1)NC(=O)[C@H](C)NC(=O)[C@H](CO)NC(=O)[C@@H]1CCCN1C(=O)[C@@H]1CCCN1C(=O)[C@H](CCCNC(=N)N)NC(=O)[C@H](CCCCN)NC(=O)[C@@H]1CCCN1C(=O)[C@H](C)NC(=O)[C@H](CC(N)=O)NC(=O)[C@@H]1CCCN1C(=O)[C@H](CC(=O)O)NC(=O)CCCC[C@@H]1SC[C@@H]2NC(=O)N[C@@H]21)C(=O)N[C@@H](Cc1ccccc1)C(=O)N[C@@H](CS)C(=O)N[C@@H](CO)C(=O)N[C@@H](CCC(=O)O)C(=O)O [Hp91, DPNAPKRPPSAFFLFCSE] (Biotin-DPNAPKRPPSAFFLFCSE-OH)
adverse effects [4]: no adverse effects

C/C1=C/C(=O)O[C@@H]2C[C@@H](CC[C@H](C)/C=C\CC1)O[C@@](O)([C@@H]1CSC(=O)N1)C2 [Latrunculin B]
effect of inhibitor pre-treatment on uptake of biotinylated Hp91 [5]: did not significantly reduce | uptake of Dextran FITC [5]: completely abrogating

COc1cccc(-c2cc(=O)c3ccccc3o2)c1N [PD98059]
effect of inhibitor pre-treatment on Hp91-induced IL-6 secretion [6]: failed to significantly reduce

C[S+]([O-])c1ccc(-c2nc(-c3ccncc3)c(-c3ccc(F)cc3)[nH]2)cc1 (stereo not drawn) [SB203580]
effect of inhibitor pre-treatment on Hp91-induced IL-6 secretion [6]: significantly reduced | effect of inhibitor pre-treatment on Hp91-induced IL-6 secretion [1]: significantly lowered

[N-]=[N+]=[N-] [Sodium azide, sodium azide]
inhibition at 10000 µM ([5]; Homo sapiens, read-out: inhibition of Hp91 uptake): ~40%

N=C(N)NC(=O)c1nc(Cl)c(N)nc1N [amiloride]
effect of inhibitor pre-treatment on uptake of biotinylated Hp91 ([5]; 30 minutes pre-treatment, PAO 2 μM, CP 100 μM, NY 20 μM, AM 2 mM): failed to significantly reduce

CN(C)CCCN1c2ccccc2Sc2ccc(Cl)cc21 [chlorpromazine]
effect of inhibitor pre-treatment on uptake of biotinylated Hp91 [5]: significantly reduced | effect of inhibitor pre-treatment on Hp91-induced IL-6 secretion [1]: no reduction

C[C@@H]1[C@H](O)[C@@H](C)/C=C/C=C/CC/C=C/C=C/C=C/C=C/C(O[C@H]2O[C@H](C)[C@@H](O)[C@H](N)[C@@H]2O)CC2O[C@](O)(CC(O)C(O)CCC(O)CC(O)CC(O)CC(=O)O[C@H]1C)CC(O)C2C(=O)O (stereo partly drawn) [nystatin]
effect of inhibitor pre-treatment on uptake of biotinylated Hp91 [5]: failed to significantly reduce

APKRPPSA (UC411 peptide)
endocytosis by DCs [5, 14]: failed to be endocytosed

ASLAPPFPNCFDPKSREF (scrambled Hp91 peptide)
antigen-specific immune response (IFN-γ ELISPOT, IL-2) ([7]; 250 μg with SIINFEKL peptide, compared to Hp91): failed to mount an antigen-specific immune response | uptake by DCs [5]: much lesser extent than Hp91; also recorded: not taken up

DPNAPKRP (UC18 peptide)
secondary structure from CD spectrum [8]: polyproline II helix | endocytosis by DCs [5, 14]: failed to be endocytosed

N-tosyl-L-phenylalanine chloromethyl ketone [TPCK]
effect of inhibitor pre-treatment on Hp91-induced IL-6 secretion [6]: significantly reduced | effect of inhibitor pre-treatment on Hp91-induced IL-6 secretion [1]: significantly lowered

RPPSAFFL (UC714 peptide)
IFNγ-secreting T cells relative to full-length Hp91 peptide ([7]; equimolar doses): 50% | number of antigen-specific IFNγ-secreting T cells compared to PBS [7]: moderate increases | endocytosis by DCs [5, 14]: failed to be endocytosed

RPPSAFFLFCSE (UC718 peptide)
IL-6 / cytokine secretion from DCs ([6]; short peptides, 48 hours): induces cytokine release from DCs

SAFFLFCSE [UC1018]
secondary structure from CD spectrum [8]: alpha helix | IL-2 level relative to Hp91 controls ([9]; equimolar doses): 4 fold | IL-2 ([9]; immunized with SIINFEKL peptide and peptide adjuvant): significantly enhanced | adjuvant strength in vivo relative to Hp91, by IFN-γ ELISPOT and IL-2 cytokine release ([7]; discussion statement): 3 fold | IFNγ ELISPOT immune response relative to Hp91 positive control ([7]; equimolar doses): 4 fold | number of antigen-specific IFNγ-secreting T cells compared to PBS [7]: significant increase | tumor formation and tumor growth vs PBS group ([10]; 142 μg with apoptotic B16 cells, significant as early as 11 days post challenge): delay in tumor formation and slowing of tumor growth | mice tumor-free and alive ([10]; at 75 days post tumor challenge): 60% | uptake by DCs compared to Hp91 controls [5, 14]: over 3 fold

SIGDVAKKLGEMWNNTAA (Hp121 peptide)
activation of human DCs in vitro [11]: does not cause activation | number of INF-γ secreting cells ([7]; s.c. with OVA-I peptide, 250 μg peptide, freshly isolated and expanded splenocytes, vs PBS/OVA-I): No significant increase | detection within DCs [12]: not detected | uptake by DCs [5]: not taken up | activation of mouse BM-DCs in vitro [13]: does not cause activation
